The values that follow come from patent US20130116225A1, “METHOD FOR TREATING HEMATOLOGICAL CANCERS” (NIIKI PHARMA INC., priority 2010, published 2013).

Each structure is given as a SMILES string. pIC50: −log10 of the molar value. “Also recorded” adds a separate entry of the source. Read-outs that look alike come from different tables or passages of the source.

Data set [1] deals with NCI-H929 multiple myeloma cells. The data set is described as follows: Anti-proliferation assay, Cell Titer-Glo (Example 3). Type of data set: cell-based, human. The protocol:
(§1) To determine the growth inhibitory activity of tris(8-quinolinolato)gallium(III) and lenalidomide, a representative panel of human multiple myeloma tumor cell lines (OPM-2, RPMI-8226, NCI-H929 and ARH-77) were tested with the compounds in anti-proliferation assays. Specifically, the human tumor cells were placed in a 96-well microculture plate at the appropriate density for 96 hours of total growth time. After 24 hours of incubation in a humidified incubator at 37° C. with 5% CO2 and 95% air, serially diluted test agents in growth medium were added to each well. After 96 total hours of culture in a CO2 incubator, the plates were processed with Cell Titer-Glo (Promega #G7571) according to manufacturer's instructions. Luminescence was detected using a Tecan GENios microplate reader. Percent inhibition of cell growth was calculated relative to untreated control wells. All tests were performed in duplicate at each concentration level.
(§2) The IC50 value for the test agents was estimated using Prism 3.03 by curve-fitting the data using the following four parameter-logistic equation: […]
(§3) where Top is the maximal % of control absorbance, Bottom is the minimal % of control absorbance at the highest agent concentration, Y is the % of control absorbance, X is the agent concentration, IC50 is the concentration of agent that inhibits cell growth by 50% compared to the control cells, and n is the slope of the curve.
On the technique in general: In ATP-based viability assays light output follows the ATP content of the culture.

Data set [2] deals with OPM-2 multiple myeloma cells. The data set is described as above. Type of data set: cell-based, human. Conditions: 96 hours total culture. The method, then:
as §1, §2, §3

Data set [3] deals with ARH-77 multiple myeloma cells. The data set is described as above. Type of data set: cell-based, human. The conditions noted are these: 96 hours total culture. The protocol: as §1, §2, §3
Data set [4] deals with RPMI-8226 multiple myeloma cells. Described as above. Type of data set: cell-based, human. The conditions noted are these: 96 hours total culture. The method, then:
as §1, §2, §3

Data set [5] relates to vincristine-resistant Nalm-6 cells. The conditions noted are these: vincristine-resistant Nalm-6, P-gp overexpressing; 72 hours.
Experimental: (§7) After 72 hours of incubation with different concentrations of the agent, DNA fragmentation was measured via FACS scan analysis. […] Values of DNA fragmentation are given as percentages of cells with hypodiploid DNA±s.d. (n=3);
(§8) Apoptotic cell death was determined by a modified cell cycle-analysis, which detects. DNA fragmentation on the single cell level. […] After a 72-hour incubation period at a temperature of 37° C., cells were collected by centrifugation at 1500 rpm for 5 min, washed with PBS at 4° C. and fixed in PBS/2% (v/v) formaldehyde on ice for 30 minutes. After fixation, cells were pelleted, incubated with ethanol/PBS (2:1, v/v) for 15 minutes, pelleted and resuspended in PBS containing 40 μg/ml RNase. RNA was digested for 30 minutes at a temperature of 37° C., after which the cells were pelleted again and finally resuspended in PBS containing 50 μg/ml propidium iodide. Nuclear DNA fragmentation was quantified by flow cytometric determination of hypodiploid DNA. Data were collected and analyzed using a FACScan instrument (Becton Dickinson, Heidelberg, Germany) equipped with CELL Quest software. Data are given in percent hypodiploidy (subG1), which reflects the number of apoptotic cells.
For data set [6], the system named is BJAB lymphoma cells. The data set can be described thus: Apoptosis induction, flow cytometric hypodiploid DNA (DNA fragmentation). Conditions: 72 hours. Type of data set: cell-based, human. The protocol:
FIG. 3 is a diagram showing apoptosis induction measured via flow cytometric determination of hypodiploid DNA in BJAB cells after treatment with tris(8-quinolinolato)gallium(III) for 72 hours. Data are given in % hypodiploidy (subG1)±ESD (n=3), which is consistent with the number of apoptotic cells;
DNA fragmentation on the single cell level.
To quantify the induction of apoptosis triggered by tris(8-quinolinolato)gallium(III) we determined the DNA fragmentation (hypodiploidy) as a characteristic effect of apoptotic cell death. The procedure was conducted by flow cytometric measurement of hypodiploid DNA after incubating lymphoma cells (BJAB) for 72 hours with the agent. Extensive apoptosis induction could be reached even in low concentrations of the agent (AC50: ˜1 μM), seen in FIG. 3.
Background: A flow cytometer gives signals particle by particle.

In data set [7] the test system is CCRF-CEM, Jurkat, MOLT-4 cell lines. Conditions: read-out: IC50, inhibiting cell growth and proliferation; all cell lines of Table 1; 48 hours with drug; XTT.
Experimental: Cells have been expanded under appropriate culture conditions until sufficient cells were available for the assay. Adherent cells were trypsinated. Cell count and viability of the cells were determined (Casy T T, Schärfe Systems). The Cells (viability >95%) were seeded in 100 μl of cell culture medium at the appropriate density of living cells into 96-well tissue culture plates. The cells were incubated at 37° C. and 5% CO2 for 24 hours.
For a negative control, 100 μl of cell culture medium were added to three wells (100% value). For a positive control all cells were deadened with phenol (0% value). The cells were incubated with the drug for further 48 hours at 37° C. and 5% CO2.
XTT assays were performed on the above treated cells. XTT is a tetrazolium salt that can be cleaved by “succinate-tetrazolium reductase”, a mitochondrial redox-system that is exclusively active in living cells. The cleavage results in a soluble formazan salt that can be quantified by colorimetric measuring at 450 nm. The intensity of the orange color is directly linked to the number of living, metabolically active cells. A concentrated stock solution (1 mg/ml PBS) of XTT (Sigma-Aldrich) was prepared, aliquoted, filtered and stored at −20° C. […] The developed formazan was quantified in an absorbance micro plate reader (Genios, Tecan) at a measurement wavelength of 450 nm and a reference wavelength of 690 nm.
Data set [8] deals with WSU-DLCL2 Human B Cell Lymphoma cells. The data set is described as follows: Anti-proliferation assay, Cell Titer-Glo (Example 6). The conditions noted are these: 96 total hours of culture. Type of data set: cell-based. The protocol: (§4) To determine the antiproliferative activity of tris(8-quinolinolato)gallium(III) in human lymphoma tumor cell lines, anti-proliferation assays were conducted in the DoHH2. Granta 519, and WSU-DLCL2 cell lines. The DoHH2 Human EBV-negative B Cell Lymphoma cells were seeded with 5,000 cells/well and grown in RPMI1640 medium containing 20% FBS, and 2 mM L-Glutamine. The Granta 519 Human Mantle Cell Lymphoma cells were seeded with 10,000 cells/well and grown in DMEM medium containing 10% FBS, and 2 mM L-Glutamine. The WSU-DLCL2 Human B Cell Lymphoma cells were seeded with 5,000 cells/well and grown in RPMI1640 medium containing 10% FBS, and 2 mM L-Glutamine. Specifically, the human tumor cells were placed in a 96-well microculture plate at the appropriate density for 96 hours of total growth time. After 24 hours of incubation in a humidified incubator at 37° C. with 5% CO2 and 95% air, serially diluted test agents in growth medium were added to each well. After 96 total hours of culture in a CO2 incubator, the plates were processed with Cell Titer-Glo (Promega #G7571) according to manufacturer's instructions. Luminescence was detected using a Tecan GENios microplate reader. Percent inhibition of cell growth was calculated relative to untreated control wells. All tests were performed in duplicate at each concentration level. The IC50 value for the test agents was estimated using Prism 3.03 by curve-fitting the data using the four parameter-logistic equation as described in Example 4 above. […] It is known that WSU-DLCL2 cells are resistant to the CHOP (cyclophosphamide, adriamycin, vincristine, prednisone) regimen. See Levi et al., Cancer Chemother. Pharmacal., (published online Aug. 31, 2010). Thus, tris(8-quinolinolato)gallium(III) is also active against lymphoma cells resistant to drugs. such as cyclophosphamide, adriamycin, vincristine, prednisone.

Data set [9] has as its system Granta 519 Human Mantle Cell Lymphoma cells. Described as above. Type of data set: cell-based. The conditions noted are these: 96 total hours of culture. The method, then: as §4
For data set [10], the system named is DoHH2 Human EBV-negative B Cell Lymphoma cells. The data set is described as above. Type of data set: cell-based. The conditions noted are these: 96 total hours of culture. The protocol:
as §4

Data set [11] deals with BJAB lymphoma cells. The data set is described as follows: Cell viability and proliferation, CASY Cell Counter. Type of data set: cell-based, human. The method, then:
FIG. 1 is a graph showing cell viability and inhibition of proliferation of BJAB lymphoma cells by tris(8-quinolinolato)gallium(III), which inhibits proliferation in a dose-dependent manner up to 100% (exposure time 24 hours);
Cell viability was determined by using the CASY® Cell Counter+Analyzer System of Innovatis (Bielefeld, Germany). Settings were specifically defined for the requirements of the cells used. With this system the cell concentration can be analyzed simultaneously in three different size ranges: thus cell debris, dead cells, and viable cells could be determined in one measurement. Cells were seeded at a density of 1×10^5cells/ml and treated with different concentrations of […]; non-treated cells served as controls. After a 24-hour incubation period, cells were re-suspended completely, and 100 μl of each well were diluted in 10 ml CASYton (ready-to-use isotonic saline solution) for immediate automated counting.
In order to assess the antiproliferative effects of tris(8-quinolinolato)gallium(III), BJAB lymphoma cells were exposed to various concentrations of the drug for 24 hours. The determination of cell viability and cell count were carried out with a CASY® Cell Counter and Analyzer System.

In data set [12] the test system is daunorubicin-resistant Nalm-6 cells. The conditions noted are these: daunorubicin-resistant Nalm-6, P-gp overexpressing; 72 hours.
Experimental: as §7, §8
In data set [13] the test system is Harakiri gene expression in BJAB cells. The data set is described as follows: Real-time PCR apoptosis gene expression array. Type of data set: cell-based, human. Conditions: 2.5 μM, 8 hours. The method, then:
(§5) For the analysis of the differential expression of multiple genes involved in the different apoptosis pathways, apoptosis-specific RT2 profiler (polymerase chain reaction) PCR expression arrays (SuperArray PAHS-012; SABiosciences Corporation, Frederick, Md., USA) was used according to the manufacturer's instructions. Total RNA was extracted from BJAB cells treated with […] for 8 hours, and RNAs were treated with DNase I (2 U/μl) to eliminate possible genomic DNA contamination. Total RNA (700 ng/μl) was then used as a template for the synthesis of a cDNA probe and subjected to quantitative real-time PCR SuperArray analysis according to the manufacturer's instructions using a LightCycler480 (Roche Diagnostics). The means of nine housekeeping genes were used to normalize the hybridization signals. Results were analyzed using SuperAnay Analyser Software, and the data are given in-fold expression of the respective genes as compared with control cells incubated in vehicle-containing medium for 8 hours.
(§6) Changes of transcript levels of apoptosis relevant genes were analyzed in RNA isolated from BJAB cells after 8 hours of incubation with 2.5 μM tris(8-quinolinolato)gallium(III). […] Harakiri (Hrk) is a pro-apoptotic Bcl-2 homology domain 3-only protein of the Bcl-2 family.
For orientation: Quantitative PCR measures a nucleic acid by following its amplification.

Data set [14] deals with caspase-5 gene expression in BJAB cells. The data set is described as follows: Real-time PCR apoptosis gene expression array. Type of data set: cell-based, human. Conditions: 2.5 μM, 8 hours. The method, then: as §5, §6
Data set [15] deals with caspase-9 and caspase-3 in BJAB cells. The data set can be described thus: Western blot analysis of caspase activation. Type of data set: cell-based, human. The conditions noted are these: 24 hours. The method, then:
FIG. 6 includes chromatograms showing Western blot analysis of tris(8-quinolinolato)gallium(III)-treated BJAB cells. Epirubicin was used as a positive control. After incubation for 24 hours the protein extracts were fractionated on a denaturating 4-20% polyacrylamide gel, transferred to nitrocellulose and detected with anti-caspase-31-9 and anti-β-actin antibody. A: caspase-9 (procaspase: 47 kDa; cleavage product: 37 kDa), B: caspase-3 (procaspase: 32 kDa; cleavage products: 18 and 17 kDa), C: β-actin (42 kDa);
For Western blot analysis, cytosolic protein ([…]) was loaded in each lane and was separated by sodium dodecylsulfate (SDS) PAGE. After blotting of proteins onto nitrocellulose membranes (Schleicher and Schuell, Dassel, Germany), the membrane was blocked for 1 h in PBST (PBS containing 0.05% Tween-20) containing 3% nonfat dry milk and incubated with primary antibody overnight at 4° C. After the membrane had been washed three times in PBST, secondary antibody in PBST was applied for 1 h. […]
Further evidence for apoptosis via the intrinsic pathway was obtained by investigating the consecutive activation of caspase-9 and -3 by Western blot analysis. […] The activation of both caspases by proteolytic cleavage was determined after treatment of BJAB cells with tris(8-quinolinolato)gallium(III). […]

For data set [16], the system named is BJAB lymphoma cells. The data set can be described thus: LDH release cytotoxicity assay. Type of data set: cell-based, human. Conditions: 1 hour exposure. The method, then: Cytotoxicity of the different drugs was measured by the release of lactate dehydrogenase (LDH). After incubation with different concentrations of tris(8-quinolinolato)gallium(III) for 1 hour, LDH activity released by BJAB cells was measured in the cell culture supernatants using the Cytotoxicity Detection Kit from Boehringer Mannheim® (Mannheim, Germany). The supernatants were centrifuged at 1500 rpm for 5 min. 20 μl of cell-free supernatants were diluted with 80 μl phosphate-buffered saline (PBS), and 100 μl reaction mixture containing 2-[4-iodophenyl]-3-[4-nitrophenyl]-5-phenyltetrazolium chloride (INT), sodium lactate, […] and diaphorase were added. Then, time-dependent formation of the reaction product was quantified photometrically at 490 nm. The maximum amount of LDH activity released by the cells was determined after lysis of the cells using 0.1% Triton X-100 in culture medium and set to represent 100% cell death.
Unspecific cytotoxic effects of the agent such as necrosis could be excluded by determination of extra cellular lactate dehydrogenase (LDH) via ELISA detection.

A further data set concerns MV4-11 leukemia cells. The data set can be described thus: Cell growth inhibition, Cell Titer-Glo (Example 4). Type of data set: cell-based, human. The conditions noted are these: 96 total hours of culture. The method, then: The human leukemia cell line MV4-11 cells were placed in a 96-well microculture plate (Costar white, flat bottom #3917) in a total volume of 90 μL/well. After 24 hours of incubation in a humidified incubator at 37° C. with 5% CO2 and 95% air, 10 μL of 10×, serially diluted tris(8-quinolinolato)gallium(III) in growth medium was added to each well. After 96 total hours of culture in a CO2 incubator, the plated cells and Cell Titer-Glo (Promega #G7571) reagents were brought to room temperature to equilibrate for 30 minutes. 100 μL of Cell Titer-Glo® reagent was added to each well. The plate was shaken for 2 minutes and then left to equilibrate for 10 minutes before reading luminescence on the Tecan GENios microplate reader. Percent inhibition of cell growth was calculated relative to untreated control wells. All tests were performed in duplicate at each concentration level. The IC50 value for the test agent was estimated using Prism 3.03 by curve-fitting the data using the following four parameter-logistic equation: […]
where Top is the maximal % of control absorbance, Bottom is the minimal of control absorbance at the highest agent concentration, Y is the % of control absorbance, X is the agent concentration, IC50 is the concentration of agent that inhibits cell growth by 50% compared to the control cells, and n is the slope of the curve. […]

`[Ga+3].[O-]c1cccc2cccnc12.[O-]c1cccc2cccnc12.[O-]c1cccc2cccnc12` [tris(8-quinolinolato)gallium(III)]: the pIC50 in data set [1] (96 hours total culture) was 5.80; in data set [2] it was 6.13; in [3] (read-out: IC50), 6.05; in data set [4] (read-out: IC50) it was 6.09; in data set [7] it was over 5.46; in data set [8], 5.83. Further, the pIC50 in data set [9] was 5.54; in data set [10] it was 6.67; in the data set on BJAB lymphoma cells [11] (24 hours, read-out: IC50, inhibition of proliferation) it was over 6.00; with MV4-11 leukemia cells, 5.84. The “apoptosis (DNA fragmentation) in resistant cells versus control cells” value in data set [5] and in [12] was “higher apoptotic amounts in the resistant cells compared to the control cells” in each case. In addition, the AC50 (usually the midpoint of the concentration-response curve, whichever way the signal moves) in the data set on BJAB lymphoma cells [6] was about 1000 nM. The CC50 with BJAB lymphoma cells [6] (read-out: LC50, apoptosis by DNA fragmentation) was about 1000 nM. Further, the “concentration giving complete block of proliferation” value in the data set with BJAB lymphoma cells [11] (24 hours) is at least 2 µM. In addition, the “inhibition of proliferation, maximal” value with BJAB lymphoma cells [11] (exposure time 24 hours) is given as “up to 100%”. Besides, the “Harakiri gene expression, upregulation” value in [13] was found to be 29 fold. In data set [14], the “caspase-5 gene expression, upregulation” value was 118 fold. Moreover, the “processing of procaspase-3 and procaspase-9” value in [15] is “induces processing of procaspase-3 (p32) and procaspase-9 (p47)”. Besides, the “LDH release (unspecific cytotoxicity, necrosis)” value with BJAB lymphoma cells [16] is “negligible; also recorded: no significant LDH release”.

Regarding `Nc1cccc2c1CN(C1CCC(=O)NC1=O)C2=O` (stereo not drawn) [Lenalidomide, lenalidomide, reference compound], the pIC50 was 5.28 in data set [1] (Homo sapiens, NCI-H929, 96 hours total culture) and 5.23 in data set [2] (Homo sapiens). Also, the IC50 result in data set [3] and in data set [4] was “Inactive” each time.
